Measured values: patent US6468476B1, “Methods for using-co-regulated genesets to enhance detection and classification of gene expression patterns” (Rosetta Inpharmatics, Inc., priority 1998, dated 2002)

System: genes regulated by the Gcn4 transcription factor
Assay: Transcript response (DNA microarray) to a titration series of FK506, genes of the Gcn4 geneset
Type: cell-based, Saccharomyces cerevisiae
Experimental: Yeast (Saccharomyces cerevisiae, Strain YPH499, see, Sikorski and Hieter, 1989, A system of shuttle vectors and yeast host strains designated for efficient manipulation of DNA in Saccharomyces cerevisiae, Genetics 122:19-27) cells were grown in YAPD at 30° C. to an OD600 of 1.0 (±0.2), and total RNA prepared by breaking cells in phenol/chloroform and 0.1% SDS by standard procedures (Ausubel et al., 1995, Current Protocols in Molecular Biology, Greene Publishing and Wiley-Interscience, New York, Ch. 13). Poly(A)^+ RNA was selected by affinity chromatography on oligo-dT cellulose (New England Biolabs) essentially as described in Sambrook et al. (Molecular Cloning—A Laboratory Manual (2nd Ed.), Vol. 1, Cold Spring Harbor Laboratory, Cold Spring Harbor, N.Y., 1989). First strand cDNA synthesis was carried out with 2 μg poly(A)^+ RNA and SuperScript™ II reverse transcriptase (Gibco-BRL) according to the manufacturer's instructions with the following modifications. Deoxyribonucleotides were present at the following concentrations: dA, dG, and dC at 500 μM each, dT at 100 μM and either Cy3-dUTP or Cy5-dUTP (Amersham) at 100 μM. cDNA synthesis reactions were carried out at 42-44° C. for 90 minutes, after which RNA was degraded by the addition of 2 units of RNAse H, and the cDNA products were purified by two successive rounds of centrifugation dialysis using MICROCON-30 microconcentrators (Amicon) according to the manufacturer's recommendations.
Double-stranded DNA polynucleotides corresponding in sequence to each ORF in the S. cerevisiae genome encoding a polypeptide greater than 99 amino acids (based on the published yeast genomic sequence, e.g., Goffeau et al., 1996, Science 274:546-567) are made by polymerase chain reaction (PCR) amplification of yeast genomic DNA. Two PCR primers are chosen internal to each of the ORFs according to two criteria: (i) the amplified fragments are 300-800 bp and (ii) none of the fragments have a section of more than 10 consecutive nucleotides of sequence in common. Computer programs are used to aid in the design of the PCR primers. Amplification is carried out in 96 well microtitre plates. The resulting DNA fragments are printed onto glass microscope slides using the method of Shalon et al., 1996, Genome Research 6:639-645.
Fluorescently-labeled cDNAs (2-6 μg) are resuspended in 4×SSC plus 1 μg/μl tRNA as carrier and filtered using […] filters (Millipore, Bedford, Mass.). SDS is added to 0.3%, prior to heating to 100° C. for 2 minutes. Probes are cooled and immediately hybridized to the microarrays produced as described in Example 6.2, for 4 hours at 65° C. Non-hybridized probe is removed by washing in 1×SSC plus 0.1% SDS at ambient temperature for 1-2 minutes. Microarrays are scanned with a fluorescence laser-scanning device as previously described (Schena et al., 1995, Science 270:467-470; Schena et al., 1995, Proc. Natl. Acad. Sci. USA 93:[…]) and the results (including the positions of perturbations) are recorded.
Geneset number 3 in the clustering analysis result of FIG. 6 involves genes regulated by the Gcn4 transcription factor. This was verified via the literature and via multiple sequence alignment analysis of the regulatory regions 5′ to the individual genes (Stormo and Hartzell, 1989, Identifying protein binding sites from unaligned DNA fragments, Proc Natl Acad Sci 86:1183-1187; Hertz and Stormo, 1995, Identification of consensus patterns in unaligned DNA and protein sequences: a large-deviation statistical basis for penalizing gaps, Proc of 3rd Intl Conf on Bioinformatics and Genome Research, Lim and Cantor, eds., World Scientific Publishing Co., Ltd. Singapore, pp. 201-216). […] These 20 were used to define a geneset. Response profiles to a titration series of the drug FK506, which is known to hit this pathway at higher concentrations, were projected onto this geneset. […]

C=CC[C@@H]1/C=C(\C)C[C@H](C)C[C@H](OC)[C@H]2O[C@@](O)(C(=O)C(=O)N3CCCC[C@H]3C(=O)O[C@H](/C(C)=C/[C@@H]3CC[C@@H](O)[C@H](OC)C3)[C@H](C)[C@@H](O)CC1=O)[C@H](C)C[C@@H]2OC [FK506]
Geneset Average response (projected response of the 20-gene Gcn4 geneset) (FK506 7.5 μg/ml): 7.8209 standard deviations of Log10(Expression Ratio) | Response of gene ARG1 (FK506 7.5 μg/ml): 4.2215 standard deviations of Log10(Expression Ratio) | Response of gene ARG4 (FK506 7.5 μg/ml): 3.2973 standard deviations of Log10(Expression Ratio) | Response of gene ARG5,6 (FK506 7.5 μg/ml): 2.7433 standard deviations of Log10(Expression Ratio) | Response of gene ARO3 (FK506 7.5 μg/ml): 0.6059 standard deviations of Log10(Expression Ratio) | Response of gene ECM13 (FK506 7.5 μg/ml): 2.5343 standard deviations of Log10(Expression Ratio) | Response of gene HIS3 (FK506 7.5 μg/ml): 1.8024 standard deviations of Log10(Expression Ratio) | Response of gene HIS5 (FK506 7.5 μg/ml): 2.8414 standard deviations of Log10(Expression Ratio) | Response of gene MET16 (FK506 7.5 μg/ml): 0.1621 standard deviations of Log10(Expression Ratio) | Response of gene NCE3 (FK506 7.5 μg/ml): 1.569 standard deviations of Log10(Expression Ratio) | Response of gene PCL5 (FK506 7.5 μg/ml): 2.2898 standard deviations of Log10(Expression Ratio) | Response of gene SNO1 (FK506 7.5 μg/ml): 2.538 standard deviations of Log10(Expression Ratio) | Response of gene SNZ1 (FK506 7.5 μg/ml): 2.538 standard deviations of Log10(Expression Ratio) | Response of gene SSU1 (FK506 7.5 μg/ml): 0.5059 standard deviations of Log10(Expression Ratio) | Response of gene YBR047W (FK506 7.5 μg/ml): 1.1596 standard deviations of Log10(Expression Ratio) | Response of gene YER024W (FK506 7.5 μg/ml): 1.1526 standard deviations of Log10(Expression Ratio) | Response of gene YGL117W (FK506 7.5 μg/ml): 2.699 standard deviations of Log10(Expression Ratio) | Response of gene YGL184C (FK506 7.5 μg/ml): −0.4586 standard deviations of Log10(Expression Ratio) | Response of gene YHR029C (FK506 7.5 μg/ml): 2.3813 standard deviations of Log10(Expression Ratio) | Response of gene YMR195W (FK506 7.5 μg/ml): 0.8879 standard deviations of Log10(Expression Ratio) | Geneset Average response (projected response of the 20-gene Gcn4 geneset) (FK506 16 μg/ml): 19.9913 standard deviations of Log10(Expression Ratio) | Response of gene ARG1 (FK506 16 μg/ml): 4.711 standard deviations of Log10(Expression Ratio) | Response of gene ARG4 (FK506 16 μg/ml): 4.5135 standard deviations of Log10(Expression Ratio) | Response of gene ARG5,6 (FK506 16 μg/ml): 6.0457 standard deviations of Log10(Expression Ratio) | Response of gene ARO3 (FK506 16 μg/ml): 4.0553 standard deviations of Log10(Expression Ratio) | Response of gene CPA2 (FK506 16 μg/ml): 4.1093 standard deviations of Log10(Expression Ratio) | Response of gene ECM13 (FK506 16 μg/ml): 4.8689 standard deviations of Log10(Expression Ratio) | Response of gene HIS3 (FK506 16 μg/ml): 4.6461 standard deviations of Log10(Expression Ratio) | Response of gene HIS5 (FK506 16 μg/ml): 6.0052 standard deviations of Log10(Expression Ratio) | Response of gene MET16 (FK506 16 μg/ml): 3.3857 standard deviations of Log10(Expression Ratio) | Response of gene NCE3 (FK506 16 μg/ml): 5.5819 standard deviations of Log10(Expression Ratio) | Response of gene PCL5 (FK506 16 μg/ml): 5.4688 standard deviations of Log10(Expression Ratio) | Response of gene SNO1 (FK506 16 μg/ml): 5.8877 standard deviations of Log10(Expression Ratio) | Response of gene SNZ1 (FK506 16 μg/ml): 5.8877 standard deviations of Log10(Expression Ratio) | Response of gene SSU1 (FK506 16 μg/ml): 4.6461 standard deviations of Log10(Expression Ratio) | Response of gene YBR047W (FK506 16 μg/ml): 3.3107 standard deviations of Log10(Expression Ratio) | Response of gene YER024W (FK506 16 μg/ml): 4.6342 standard deviations of Log10(Expression Ratio) | Response of gene YGL117W (FK506 16 μg/ml): 4.9827 standard deviations of Log10(Expression Ratio) | Response of gene YGL184C (FK506 16 μg/ml): 2.7166 standard deviations of Log10(Expression Ratio) | Response of gene YHR029C (FK506 16 μg/ml): 5.0446 standard deviations of Log10(Expression Ratio) | Response of gene YMR195W (FK506 16 μg/ml): 4.0983 standard deviations of Log10(Expression Ratio) | Geneset Average response (projected response of the 20-gene Gcn4 geneset) (FK506 50 μg/ml): 21.3315 standard deviations of Log10(Expression Ratio) | Response of gene ARG1 (FK506 50 μg/ml): 5.7996 standard deviations of Log10(Expression Ratio) | Response of gene ARG4 (FK506 50 μg/ml): 5.8858 standard deviations of Log10(Expression Ratio) | Response of gene ARG5,6 (FK506 50 μg/ml): 5.2406 standard deviations of Log10(Expression Ratio) | Response of gene ARO3 (FK506 50 μg/ml): 5.7035 standard deviations of Log10(Expression Ratio) | Response of gene CPA2 (FK506 50 μg/ml): 4.0958 standard deviations of Log10(Expression Ratio) | Response of gene ECM13 (FK506 50 μg/ml): 3.1882 standard deviations of Log10(Expression Ratio) | Response of gene HIS3 (FK506 50 μg/ml): 5.2637 standard deviations of Log10(Expression Ratio) | Response of gene HIS5 (FK506 50 μg/ml): 4.9557 standard deviations of Log10(Expression Ratio) | Response of gene MET16 (FK506 50 μg/ml): 4.855 standard deviations of Log10(Expression Ratio) | Response of gene NCE3 (FK506 50 μg/ml): 3.3928 standard deviations of Log10(Expression Ratio) | Response of gene PCL5 (FK506 50 μg/ml): 5.2339 standard deviations of Log10(Expression Ratio) | Response of gene SNO1 (FK506 50 μg/ml): 5.5665 standard deviations of Log10(Expression Ratio) | Response of gene SNZ1 (FK506 50 μg/ml): 5.5665 standard deviations of Log10(Expression Ratio) | Response of gene SSU1 (FK506 50 μg/ml): 3.5782 standard deviations of Log10(Expression Ratio) | Response of gene YBR047W (FK506 50 μg/ml): 4.248 standard deviations of Log10(Expression Ratio) | Response of gene YER024W (FK506 50 μg/ml): 5.8934 standard deviations of Log10(Expression Ratio) | Response of gene YGL117W (FK506 50 μg/ml): 5.9066 standard deviations of Log10(Expression Ratio) | Response of gene YGL184C (FK506 50 μg/ml): 5.3106 standard deviations of Log10(Expression Ratio) | Response of gene YHR029C (FK506 50 μg/ml): 5.5781 standard deviations of Log10(Expression Ratio) | Response of gene YMR195W (FK506 50 μg/ml): 4.6141 standard deviations of Log10(Expression Ratio)
